The test system of one assay is human neutrophils. The assay is described as follows: inhibition of neutrophil locomotion (intrinsic and chemotactic), in vitro agarose test by the method of Nelson et al. The class given is cell-based. Particulars: 2 hours at 37° C., duplicate, four donors; for inhibition at 100 µM: 10^-4 molar; for inhibition at 10 µM: 10^-5 molar. As for the experimental part: The compounds of this invention show marked anti-inflammatory properties as intraperitoneal or oral doses of 25-200 mg./kg. and at intravenous doses of 10 mg./kg. and above. […] The current compounds also are inhibitors of chemotaxis of human neutrophils at molar concentrations of 0.00001-0.0005, causing 50-100% inhibition of intrinsic and chemotactic locomotion of the cells, as established by the method of Nelson et al. in J. Immunol. 115, 1650 (1975).
By carrying out the in vitro test of Nelson et al. referred to above, the neutrophil locomotor response modification caused by the above compounds was established. For this purpose, the compounds were dissolved in both agarose media and the media suspending the cells. The effects of the compounds were determined by comparing te chemotactic and intrinsic locomotion of the cells, both with and without the test compounds after 2 hours of incubation at 37° C. All compounds were evaluated in duplicate against the cells which were from four individual donors.

Assay [1] relates to Type III reactions (reverse passive Arthus lesion). As to the kind of experiment: reverse passive Arthus assay (Carter and Krause); Type III reaction. Type of assay: in vivo. The note with it: 50 mg./kg. intraperitoneal, group of four animals. As for the experimental part: Upon intraperitoneal administration to a group of four animals at a dose of 50 mg./kg., the lesion area is inhibited an average of 49% by the compound of Example 1 and 47% by the compound of Example 5.

Assay [2] has as its system carrageenin induced hind paw edema. As to the kind of experiment: modification of the carrageenin induced hind paw edema assay (Winter et al.); anti-inflammatory activity. Type of assay: in vivo. Particulars: for reduction of carrageenin induced swelling (volume): after 3 hours. Background: Carrageenan injected into the paw causes an acute inflammation.
[3] abbreviates: read-out: % Inhibition of Locomotion, Chemotactic.
Setting [4] is: read-out: % Inhibition of Locomotion, Intrinsic.

Structures can show the parent of a compound that is named as a salt. Where two headings read alike, the source gives them in different places.

Results on six compounds are retold here after patent US4273940A, “Bis-(2-benzylaminoethyl)-disulfides” (Abbott Laboratories, priority 1980, dated 1981).

`Clc1cccc(Cl)c1CNCCSSCCNCc1c(Cl)cccc1Cl` [Example 6, bis(2,6-dichlorobenzylaminoethyl)disulfide hydrochloride]: the inhibition (as a rule, the relative decrease from the control value, in per cent) at 100 µM in the assay with human neutrophils (setting [3]) was found to be 85%; in the assay on human neutrophils (setting [4]), 74%.
`Oc1ccccc1CNCCSSCCNCc1ccccc1O` [Example 2, bis(2-hydroxybenzylaminoethyl)disulfide]: the inhibition at 100 µM in the assay with human neutrophils (setting [3]) and with human neutrophils (setting [4]) was 100% in each case.
With `CC(C)(C)c1cc(Cl)c(O)c(CNCCSSCCNCc2cc(C(C)(C)C)cc(Cl)c2O)c1` [Example 5, bis(2-hydroxy-3-chloro-5-t-butylbenzylaminoethyl)disulfide], in the assay with human neutrophils (setting [3]), the inhibition at 100 µM came out at 100% and the inhibition at 10 µM came to 46%. In addition, in the assay on human neutrophils (setting [4]), the inhibition at 100 µM stood at 85% and the inhibition at 10 µM came out at 24%. In assay [1], the “inhibition of lesion area (average)” value is 47%.
As for `COc1ccccc1CNCCSSCCNCc1ccccc1OC.Cl.Cl` [Example 1, bis(2-methoxybenzylaminoethyl)disulfide dihydrochloride], the inhibition at 100 µM in the assay on human neutrophils (setting [3]) and in the assay on human neutrophils (setting [4]) was 100% in each case. For the same compound, the inhibition at 10 µM in the assay with human neutrophils (setting [3]) came to 93%; with human neutrophils (setting [4]) it was 94%. The “reduction of carrageenin induced swelling (volume)” value turned out to be 14.6% in assay [2] (25 mg./kg. intraperitoneal) and 29.9% in assay [2] (50 mg./kg. intraperitoneal). For the same compound, the “inhibition of lesion area (average)” value in assay [1] was determined as 49%.
For `Cc1cc(C(C)(C)C)cc(CNCCSSCCNCc2cc(C(C)(C)C)cc(C)c2O)c1O` [Example 4, bis(2-hydroxy-3-methyl-5-t-butylbenzylaminoethyl)disulfide dihydrochloride], in the assay with human neutrophils (setting [3]), the inhibition at 100 µM came to 100% and the inhibition at 10 µM was 48%. In the assay on human neutrophils (setting [4]), the inhibition at 100 µM was determined as 95% and the inhibition at 10 µM stood at 50%.
With `CC(=O)Oc1ccccc1C(=O)O` [acetylsalicylic acid, reference compound], the “reduction of carrageenin induced swelling (volume), acetylsalicylic acid” value in assay [2] (50 mg/kg., corresponding measurement (3 hours)) was found to be 15.4%.
